The target in one data set is T1, recombinant Caspase-9 (Homo sapiens, UniProt P55211).
T1 construct: purchased BioVision
In words: Caspase Inhibitor Drug Screening Kit (BioVision), LEHD-AFC substrate. It counts as biochemical. To be noted: not active site titrated. As to the method:
(§1) The half-maximal inhibitory concentrations (IC50) for NWL inhibitors (Patent publication # WO/2009/140765, WO/2010/133000, and WO/2012/140500) was determined by incubating 0 to 20 μM NWL-117 and NWL-154 with 20 nM of active site-titrated Casp6 in SB at room temperature for 5 minutes. Then, 10 μM Ac-VEID-AFC was added and fluorescence measured for 20 min at 37 °C as described above. New World Laboratories performed the IC50 determination for NWL inhibitors dissolved in dimethyl sulfoxide (DMSO) against recombinant Casp1-10 using the Caspase Inhibitor Drug Screening Kits (BioVision, San Francisco, CA) following the manufacturer’s instructions and the preferred substrates for the caspases (Caspase-1: WAD-AFC, Caspase-2: VDVAD-AFC, Caspase-3: DEVD-AFC, Caspase-4: LEVD-AFC, Caspase-5: WEHD-AFC, Casp6:VEID-AFC, Caspase-7: DEVD-AFC, Caspase-8: IETD-AFC, Caspase-9: LEHD-AFC, Caspase-10: AEVD-AFC). In transfected HCT116 cells, 0 to 100 μM NWL inhibitors were added in the culture media and left on the cells for 2 h. Cells were washed once with 1 mL ice-cold PBS, incubated on ice for 5 min with 200 μL cell lysis buffer (CLB) (50 mM HEPES, 0.1% CHAPS, 0.1 mM EDTA), and gently scraped off. Protein concentrations were determined by Bradford assay (BioRad, Mississauga, ON, CA) by measuring the absorbance at 595 nm using the BioTek Synergy H4 plate reader. […]

In a further data set the test system is HCT116 cells. Nature of the data set: Cellular toxicity in HCT116 cells (phase contrast, MTT, LDH, sub-G1). It counts as cell-based, human. The conditions noted are these: for cell morphology (phase contrast) / lactate dehydrogenase (LDH) release / sub-G1 levels of DNA: HCT116, 100 μM, 24 h; for mitochondrial reductive potential (MTT): HCT116, 20, 50 or 100 μM, 24 or 48 h. The procedure: (§2) Immunofluorescence on human neuron cultures: Primary human neurons were pre-treated 2 h and serum-deprived in the presence of 100 μM NWL-117, 100 μM NWL-154, or 5 μM Z-VEID-fmk (Biomol, Plymouth meeting, PA, USA) for 24 h. Following treatment, human neurons were washed once with warm PBS, fixed for 20 min at room temperature with 4% paraformaldehyde (Sigma, Oakville, ON, CA)/4% sucrose (BioRad, Mississauga, ON, CA) for TubΔCasp6 or 2% formaldehyde (Thermo Fisher Scientific, Waltham, MA, USA)/0.2% glutaraldehyde (Sigma, Oakville, ON, CA) for pBudEGFP or pBudEGFP/APP^WT-transfected neurons, incubated in permeabilization buffer (0.1% Triton X-100, 0.1 sodium citrate) for 1 min on ice, washed with PBS, blocked for 20 min at room temperature with 10% goat serum (Sigma, Oakville, ON, CA), and incubated with primary antibodies diluted in 10% goat serum in PBS overnight at 4 °C in a humid chamber. The glass coverslips were washed with PBS, and incubated with goat anti-rabbit secondary antibody coupled to Alexa 488 (Molecular Probes, Eugene, OR, USA) or Cy3 (GE Healthcare Life Sciences, Baie D’Urfe, QC, CA) and Hoechst 33342 (ImmunoChemistry, Bloomington, MN, USA) at 1 μg/mL for 2 h at room temperature. The coverslips were washed with PBS and rinsed in Milli-Q water before mounting in fluoromount (Dako, Burlington, ON, CA). Images were acquired by fluorescence microscopy and quantified using the ImageJ software (NIH, Bethesda, MD, USA) for TubΔCasp6 and manually counted for transfected EGFP(+)-neurons. Time lapse-imaging by live fluorescence microscopy: Primary human neurons were transfected with gold beads coated with pBudEGFP or pBudEGFP/APP^WT using a Helios Gene gun (BioRad, Mississauga, ON, CA). Briefly, cells were pre-treated with 100 μM NWL inhibitors or 5 μM Z-VEID-fmk for 2 h. The media was removed and the neurons were shot at 100 psi. The media was quickly replaced with the inhibitors present. The plasmid was expressed for 16 h before setting up the fluorescence microscope (Nikon Eclipse Ti) to acquire 20 images per condition every hour for 72 h at 37 °C with 5% CO2. The images were analyzed by counting the total number of neurons (50–100 neurons per condition per independent experiment), and the number of beaded, swollen soma, and healthy neurons. In addition, the time at which cells beaded was noted. Phase contrast microscopy: HCT116 cells, plated at a density of 1×10^5 cells/well and human neurons, plated at a density of 6×10^6 cells/well on poly-L-lysine were treated with PBS, 100 μM NWL-117, 100 μM NWL-154, or 2 μM staurosporine (Biomol, Plymouth meeting, PA, USA) for 24 h. Images were acquired with the Nikon Eclipse Ti microscope and the NIS-Elements (Version 3.10) software.
MTT assay: HCT116 cells or primary human neurons were seeded in 96-well plates at a density of 1x10^4 and 1x10^5 cells per well, respectively. The next day, cells and neurons were treated with vehicle (PBS), or 20, 50, or 100 μM of NWL-117, NWL-154, or 2 μM staurosporine for 24 or 48 h. The media was replaced with […] MTT (3-(4,5-dimethylthiazol-2-yl)-2,5-diphenyltetrazolium bromide) (Sigma-Aldrich, Oakville, ON, CA) and the cells were incubated for 4 h at 37 °C in 5% CO2. The media was removed before dissolving the formazan crystals in 100 μL DMSO while shaking for 30 min. Once dissolved, the absorbance of each sample was measured at 560 nm and 670 nm using the Synergy H4 plate reader from BioTek (Winooski, VT, USA). LDH Assay: HCT116 cells were seeded in a 6-well plate at a density of 1×10^5 cells/well and treated the following day with 100 μM NWL-117 or −154 or equal volumes of vehicle (PBS) for 24 h. As a positive control, some cells were lysed for 2 h in 0.9% Triton X-100 (BioShop Canada Inc, Burlington, Ontario, CA). Media was collected and stored at −20 °C or assayed right away using the Cytotox 96 kit (Promega, Madison, WI, USA) following the manufacturer’s protocol. […]

The subject of data set [1] is APPWT-transfected primary human CNS neurons. In words: Neuritic beading/degeneration in APPWT-transfected primary human neurons. It counts as cell-based. The conditions noted are these: for neuritic beading: APPWT/EGFP co-expression, 48 h; for neuritic beading / percentage of beaded neurons, fold of EGFP-alone: NWL 100 μM, Z-VEID-fmk 5 μM; for percentage of beaded neurons, fold of EGFP-alone: live imaging 72 h, APPWT vehicle 1.52, EGFP-alone 1.00, mean ± SEM. The procedure:
as §2

A further data set concerns the target T2, recombinant Caspase-4 (Homo sapiens, UniProt P49662).
T2 construct: purchased BioVision
In words: Caspase Inhibitor Drug Screening Kit (BioVision), LEVD-AFC substrate. The conditions noted are these: not active site titrated. It is filed as biochemical. The procedure:
as §1

In the next data set the target is T3, recombinant Caspase-7 (Homo sapiens, UniProt P55210).
T3 construct: purchased BioVision
In words: Caspase Inhibitor Drug Screening Kit (BioVision), DEVD-AFC substrate. It is filed as biochemical. To be noted: not active site titrated. As to the method: (§3) The half-maximal inhibitory concentrations (IC50) for NWL inhibitors (Patent publication # WO/2009/140765, WO/2010/133000, and WO/2012/140500) was determined by incubating 0 to 20 μM NWL-117 and NWL-154 with 20 nM of active site-titrated Casp6 in SB at room temperature for 5 minutes. Then, 10 μM Ac-VEID-AFC was added and fluorescence measured for 20 min at 37 °C as described above. New World Laboratories performed the IC50 determination for NWL inhibitors dissolved in dimethyl sulfoxide (DMSO) against recombinant Casp1-10 using the Caspase Inhibitor Drug Screening Kits (BioVision, San Francisco, CA) following the manufacturer’s instructions and the preferred substrates for the caspases (Caspase-1: WAD-AFC, Caspase-2: VDVAD-AFC, Caspase-3: DEVD-AFC, Caspase-4: LEVD-AFC, Caspase-5: WEHD-AFC, Casp6:VEID-AFC, Caspase-7: DEVD-AFC, Caspase-8: IETD-AFC, Caspase-9: LEHD-AFC, Caspase-10: AEVD-AFC). In transfected HCT116 cells, 0 to 100 μM NWL inhibitors were added in the culture media and left on the cells for 2 h. Cells were washed once with 1 mL ice-cold PBS, incubated on ice for 5 min with 200 μL cell lysis buffer (CLB) (50 mM HEPES, 0.1% CHAPS, 0.1 mM EDTA), and gently scraped off. Protein concentrations were determined by Bradford assay (BioRad, Mississauga, ON, CA) by measuring the absorbance at 595 nm using the BioTek Synergy H4 plate reader. Caspase-6 activity was measured in 40–60 μg total protein as described above. The IC50 for recombinant and cellular caspases were determined using GraphPad Prism 5.0 (La Jolla, CA, USA) using a log (inhibitor) – response curve with a Hill slope of −1.

The next data set concerns the target T4, recombinant Caspase-3 (Homo sapiens, UniProt P42574).
T4 construct: purchased BioVision
The data set is described as above. It is filed as biochemical. To be noted: not active site titrated. As to the method:
as §3

Where [2] appears, read: APPWT-transfected neurons, live imaging, 100 μM.

One may read the IC50 as the midpoint of a concentration-inhibition curve.

T4 sequence (P42574 29-277): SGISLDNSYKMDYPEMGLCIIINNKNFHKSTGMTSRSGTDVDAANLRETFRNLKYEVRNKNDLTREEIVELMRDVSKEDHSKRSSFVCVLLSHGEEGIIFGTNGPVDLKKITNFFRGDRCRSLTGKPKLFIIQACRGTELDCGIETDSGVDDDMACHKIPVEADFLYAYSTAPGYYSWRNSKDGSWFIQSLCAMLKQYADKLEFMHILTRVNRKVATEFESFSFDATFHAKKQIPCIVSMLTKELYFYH
T2 sequence (P49662 81-377): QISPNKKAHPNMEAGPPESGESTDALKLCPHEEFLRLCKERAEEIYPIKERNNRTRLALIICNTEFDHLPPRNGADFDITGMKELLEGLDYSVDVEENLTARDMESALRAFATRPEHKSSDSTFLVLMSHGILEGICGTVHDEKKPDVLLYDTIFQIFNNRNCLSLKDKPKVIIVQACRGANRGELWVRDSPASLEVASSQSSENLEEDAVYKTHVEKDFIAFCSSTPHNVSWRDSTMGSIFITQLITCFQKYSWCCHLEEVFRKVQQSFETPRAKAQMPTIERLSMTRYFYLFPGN
T1 sequence (P55211 whole entry): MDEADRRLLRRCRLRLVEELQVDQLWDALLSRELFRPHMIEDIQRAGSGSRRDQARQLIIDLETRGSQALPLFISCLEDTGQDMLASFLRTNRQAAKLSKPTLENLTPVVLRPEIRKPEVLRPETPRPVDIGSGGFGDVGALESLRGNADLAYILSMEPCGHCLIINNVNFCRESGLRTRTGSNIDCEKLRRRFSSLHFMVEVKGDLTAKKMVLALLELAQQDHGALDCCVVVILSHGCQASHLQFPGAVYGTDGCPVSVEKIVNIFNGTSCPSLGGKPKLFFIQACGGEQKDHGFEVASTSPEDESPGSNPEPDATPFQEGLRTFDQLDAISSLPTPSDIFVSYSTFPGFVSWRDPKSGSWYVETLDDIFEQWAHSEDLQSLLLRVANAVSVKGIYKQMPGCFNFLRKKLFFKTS
T3 sequence (P55210 whole entry): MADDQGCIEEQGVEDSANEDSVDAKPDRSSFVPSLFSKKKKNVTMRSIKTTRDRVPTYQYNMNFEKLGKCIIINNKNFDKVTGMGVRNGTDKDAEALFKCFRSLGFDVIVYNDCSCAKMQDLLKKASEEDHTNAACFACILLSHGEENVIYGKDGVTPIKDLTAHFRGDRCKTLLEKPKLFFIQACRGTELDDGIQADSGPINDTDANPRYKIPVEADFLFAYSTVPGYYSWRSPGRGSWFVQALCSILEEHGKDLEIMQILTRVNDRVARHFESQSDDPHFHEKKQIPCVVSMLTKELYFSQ

Regarding `CCC(C)[C@H](NC(=O)[C@H](CCC(=O)O)NC(=O)[C@@H](NC(=O)OCc1ccccc1)C(C)C)C(=O)N[C@H](/C=C/S(C)(=O)=O)CC(=O)O` (stereo partly shown) [NWL-117], at recombinant Caspase-9, the IC50 came to 790 nM. Also, in the data set with HCT116 cells, the “cell morphology (phase contrast)” value is recorded as “morphologically normal”, the “lactate dehydrogenase (LDH) release” value is recorded as “did not release lactase dehydrogenase”, the “sub-G1 levels of DNA” value is on record as “nor did the cells show increased sub-G1 levels” and the “mitochondrial reductive potential (MTT)” value is recorded as “comparable to vehicle-treated cells”. In data set [1] (setting [2]), the neuronal soma rounding entry is on record as “inhibited” and the “neuronal survival (neurons with homogeneously distributed EGFP)” value is listed as “significantly increases neuronal survival”. In addition, in data set [1], the neuritic beading entry was “prevented neuritic beading” and the “percentage of beaded neurons, fold of EGFP-alone” value is 0.84 fold. In addition, on recombinant Caspase-4, the IC50 was 380 nM. The IC50 at recombinant Caspase-7 was above 100000 nM. Further, the IC50 at recombinant Caspase-3 amounted to 6960 nM.

Consider `CCC(C)[C@H](NC(=O)[C@H](CCC(=O)O)NC(=O)[C@@H](NC(=O)OCc1ccccc1)C(C)C)C(=O)N[C@H](/C=C(\Cl)S(C)(=O)=O)CC(=O)O` (stereo partly shown) [NWL-154], for which the IC50 on recombinant Caspase-9 was determined as 6400 nM. Moreover, in the data set on HCT116 cells, the “cell morphology (phase contrast)” value is “morphologically normal”, the “lactate dehydrogenase (LDH) release” value is “did not release lactase dehydrogenase”, the “sub-G1 levels of DNA” value is on record as “nor did the cells show increased sub-G1 levels” and the “mitochondrial reductive potential (MTT)” value is reported as “comparable to vehicle-treated cells”. Also, in data set [1], the neuritic beading entry is “prevented neuritic beading” and the “percentage of beaded neurons, fold of EGFP-alone” value is 1.07 fold. Further, at recombinant Caspase-4, the IC50 is 1800 nM. Also, the IC50 at recombinant Caspase-7 is above 100000 nM. Moreover, the IC50 on recombinant Caspase-3 came out at 1340 nM.
